According to patent publication US5356926A, “3-alkyloxy-, aryloxy-, or arylalkyloxy-benzo [β]thiophene-2-carboxamides as inhibitors of cell adhesion” (Warner-Lambert Company, priority 1993, dated 1994):

tested on: human neutrophil adhesion to TNFα, IL-1α, and LPS-stimulated human umbilical vein endothelial cells; assay: Inhibition of human neutrophil adhesion to stimulated HUVEC (51Cr-labeled neutrophils); format: cell-based; conditions: Table 1
From the text: METHOD FOR DETERMINING THE INHIBITION OF HUMAN NEUTROPHIL ADHESION TO TNFα, IL-1α, AND LPS-STIMULATED HUMAN UMBILICAL VEIN ENDOTHELIAL CELLS BY 3-ALKYLOXY-, ARYLOXY-, OR ARYLALKYLOXY BENZO[b]THIOPHENE-2-CARBOXAMIDES
Neutrophils were isolated from anticoagulant-treated venous blood obtained from healthy human volunteers according to the method of Ferrante and Thong (J. Immunol. Methods 1978;24:389-93).
Second passage human umbilical vein endothelial cells (HUVEC) (Clonetics, San Diego, Calif.) were seeded into Falcon 24-well cell culture plates (Becton Dickinson, Lincoln Park, N.J.) at approximately 2×10^4 cells per well. The cells were grown to confluent monolayers in endothelial basal medium (EBM, Clonetics) supplemented with 5% fetal calf serum (Hyclone Laboratories, Logan, Utah), 10 ng/mL EGF, 1 μg/mL hydrocortisone, 0.4% bovine brain extract (Clonetics) in 5% CO2 at 37° C.
Neutrophils (30×10^6) were labeled for 60 minutes at 37° C. with 100 μCi Na^51 CrO4 (ICN Biomedicals, Costa Mesa, Calif.) in 2.0 mL Ca^2+ - and Mg^2+ -free Hanks' balanced salt solution (HBSS, GIBCO Laboratories, Grand Island, N.Y.). The cells were washed two times in HBSS and suspended in unsupplemented EBM.
Stimulation of HUVEC with tumor necrosis factor-α (TNFα) (Genzyme, Cambridge, Mass.) , interleukin (IL-1α) (Genzyrne) or E. coli 0111:B4 lipopolysaccharide (LPS) (Sigma) in the presence or absence of drug was initiated 4 hours prior to the addition of neutrophils. The suspension medium was unsupplemented EBM or supplemented EBM for studies with cytokines or LPS, respectively. […] Immediately prior to addition of ^51 Cr-labeled neutrophils to the HUVEC monolayers, the cultures were washed with 1 mL unsupplemented media to remove stimulus and/or drug. Neutrophils (5×10^5) were then added to the HUVEC in 0.5 mL unsupplemented media and incubated at 37° C. for 30 minutes. Nonadherent neutrophils were removed by aspiration. Following an additional wash, adherent neutrophils were lysed with 0.5 mL 1N NH4 OH overnight at 37° C. Lysates were collected and the radioactivity in each well was determined by gamma ray spectroscopy.

Compound	IC50 [µM]
CC(C)Oc1c(C(N)=O)sc2ccc(O)cc12 [Example 10, 5-Hydroxy-3-(1-methylethoxy)benzo[b]thiophene-2-carboxamide]	1.2

same assay, conditions: Table 1, at 100 μM

Compound	inhibition at 100 µM [%]
CC(C)Oc1c(C(N)=O)sc2ccc(Cl)cc12 [Example 3, 5-Chloro-3-(1-methylethoxy)benzo[b]thiophene-2-carboxamide]	72
Cc1ccc2sc(C(N)=O)c(OC(C)C)c2c1 [Example 4, 5-Methyl-3-(1-methylethoxy)benzo[b]thiophene-2-carboxamide]	61
CC(C)Oc1c(C(N)=O)sc2ccc([N+](=O)[O-])cc12 [Example 5, 3-(1-Methylethoxy)-5-nitrobenzo[b]thiophene2-carboxamide]	40
COc1cccc2c(OC(C)C)c(C(N)=O)sc12 [Example 6, 7-Methoxy-3-(1-methylethoxy)benzo[b]thiophene2-carboxamide]	35
COc1ccc2sc(C(N)=O)c(OC)c2c1 [Example 7, 3,5-Dimethoxybenzo[b]thiophene-2-carboxamide]	60
COc1ccc2sc(C(N)=O)c(OCc3ccccc3)c2c1 [Example 8, 5-Methoxy-3-(phenylmethoxy)benzo[b]thiophene2-carboxamide]	57
COc1ccc2c(OC(C)C)c(C(N)=O)sc2c1 [Example 11, 6-Methoxy-3-(1-methylethoxy)benzo[b]thiophene-2-carboxamide]	24
COc1ccc2sc(C(N)=O)c(OC(C)(C)C)c2c1 [Example 30, 3-(1,1-Dimethylethoxy)-5-methoxybenzo[b]thiophene2-carboxamide]	100
CC(C)Oc1c(C(N)=O)sc2cc(Cl)ccc12 [Example 31, 6-Chloro-3-(1-thylethoxy)benzo[b]thiophene-2-carboxamide]	26
CC(C)Oc1c(C(N)=O)sc2ccc(N)cc12 [Example 32, 5-Amino-3-(1-methylethoxy)benzo[b]thiophene-2-carboxamide]	49

same assay, conditions: Table 2, at 100 μM

Compound	inhibition at 100 µM [%]
COc1ccc2sc(C(=O)Nc3cccc(C(=O)O)c3)c(OC(C)C)c2c1 [Example 13, 3-[[[5-Methoxy-3-(1-methylethoxy)benzo[b]thien-2-yl]carbonyl]amino]benzoic acid]	28
CCOC(=O)c1ccccc1NC(=O)c1sc2ccc(OC)cc2c1OC(C)C [Example 14]	32
COc1ccc2sc(C(=O)Nc3ccccc3C(=O)O)c(OC(C)C)c2c1 [Example 15, 2-[[[5-Methoxy-3-(1-methylethoxy)benzo[b]thien2-yl]carbonyl]amino]benzoic acid]	35
COc1ccc2sc(C(=O)NCc3ccc(C(=O)O)cc3)c(OC(C)C)c2c1 [Example 16, 4-[[[5-Methoxy-3-(1-methylethoxy)benzo[b]thien-2-yl]carbonyl]aminomethyl]benzoic acid]	47
COC(=O)Cc1ccc(NC(=O)c2sc3ccc(OC)cc3c2OC(C)C)cc1 [Example 17]	27
COc1ccc2sc(C(=O)Nc3ccc(CC(=O)O)cc3)c(OC(C)C)c2c1 [Example 18, 4-[[[5-Methoxy-3-(1-methylethoxy)benzo[b]thien2-yl]carbonyl]amino]benzeneacetic acid]	32
COC(=O)Cc1cccc(NC(=O)c2sc3ccc(OC)cc3c2OC(C)C)c1 [Example 19, Methyl 3-[[[5-Methoxy-3-(1-methylethoxy)benzo[b]thien-2-yl]carbonyl]amino]benzeneacetate]	45
COc1ccc2sc(C(=O)Nc3cccc(CC(=O)O)c3)c(OC(C)C)c2c1 [Example 20, 3-[[[5-Methoxy-3-(1-methylethoxy)benzo[b]thien-2-yl]carbonyl]amino]benzeneacetic acid]	70
COC(=O)CCCCNC(=O)c1sc2ccc(OC)cc2c1OC(C)C [Example 21, Methyl 5-[[[5-methoxy-3-(1-methylethoxy)benzo[b]thien2-yl]carbonyl]amino]pentanoate]	8
COc1ccc2sc(C(=O)NCCCCC(=O)O)c(OC(C)C)c2c1 [Example 22, 5-[[[5-Methoxy-3-(1-methylethoxy)benzo[b]thien2-yl]carbonyl]amino]pentanoicacid]	9
COc1ccc2sc(C(=O)Nc3ccsc3C(=O)O)c(OC(C)C)c2c1 [Example 23]	20
CNC(=O)c1sc2ccc(OC)cc2c1OC(C)C [Example 24]	78
CCNC(=O)c1sc2ccc(OC)cc2c1OC(C)C [Example 25]	64
COc1ccc2sc(C(=O)Nc3ccccc3)c(OC(C)C)c2c1 [Example 26, 5-Methoxy-3-(1-methylethoxy)-N-phenylbenzo[b]thiophene-2-carboxaraide]	12
COc1ccc2sc(C(=O)NCc3ccccc3)c(OC(C)C)c2c1 [Example 27, 5-Methoxy-3-(1-methylethoxy)-N-(phenylmethyl)benzo[b]thiophene-2-carboxamide]	35
COC(=O)CCCNC(=O)c1sc2ccc(OC)cc2c1OC(C)C [Example 33, Methyl 4-[[[5-methoxy-3-(1-methylethoxy)benzo[b]thien-2-yl]carbonyl]amino]butanoate]	100
COc1ccc2sc(C(=O)NCCCC(=O)O)c(OC(C)C)c2c1 [Example 34, 4-[[[5-Methoxy-3-(1-methylethoxy)benzo[b]thien-2-yl]carbonyl]amino]butanoicacid]	35
COc1ccc2sc(C(=O)NC(C)C)c(OC(C)C)c2c1 [Example 35, 5-Methoxy-3-(1-methylethoxy)-N-(1-methylethyl)benzo[b]thiophene-2-carboxamide]	100

same assay, conditions: Table 3, at 100 μM

Compound	inhibition at 100 µM [%]
COc1ccc2c(c1)C(OC(C)C)=C(C(N)=O)S2(=O)=O [Example 29, 5-Methoxy-3-(1-methylethoxy)benzo[b]thiophene2-carboxamide 1,1'-dioxide]	4
